Data published in US20090203763A1, “SUBSTITUTED BENZHYDRYLETHERS” (AUSPEX PHARMACEUTICALS, INC., priority 2008, published 2009).

What was measured:
[1] = In vitro human liver microsomal (HLM) stability assay; assay type: in vitro ADME; settings: human liver microsomes 1 mg per mL protein, 1 μM compound, about 37° C.; as compared to the non-isotopically enriched drug
Description: Liver microsomal stability assays were conducted at 1 mg per mL liver microsome protein with an NADPH-generating system in 2% NaHCO3 (2.2 mM NADPH, 25.6 mM glucose 6-phosphate, 6 units per mL glucose 6-phosphate dehydrogenase and 3.3 mM MgCl2). Test compounds were prepared as solutions in 20% acetonitrile-water and added to the assay mixture (final assay concentration 1 μM) and incubated at about 37° C. Final concentration of acetonitrile in the assay should be <1%. Aliquots (50 μL) were taken out at times 0, 0.25, […], and 1 hours, and diluted with ice cold acetonitrile (200 μL) to stop the reactions. Samples were centrifuged at 12,000 RPM for about 10 min to precipitate proteins. Supernatants were transferred to micro centrifuge tubes and stored for LC/MS/MS analysis of the degradation half-life of the test compounds.
Results of In Vitro Human Liver Microsomal (HLM) Stability Assay—Percent Change in Degradation Half-Life

[2] = after both one-time and repeated (daily) administration; Verster et al. 2004; cited from earlier work

Percent Change in Degradation Half-Life, −25%-0% [1] | Percent Change in Degradation Half-Life, 0%-50% [1] | SMILES | also measured
+ (−25%-0%) |  | O=C(O)/C=C/C(=O)O.[2H]C([2H])(C[C@H]1CCCN1C([2H])([2H])[2H])O[C@](C)(c1ccccc1)c1ccc(Cl)cc1 [Example 5, (R)-2-[2-[(R)-1-(4-Chlorophenyl)-1-phenylethoxy]ethyl-2,2-d2]-1-methyl-d3-pyrrolidine fumarate] | 
 | + (0%-50%) | O=C(O)/C=C/C(=O)O.[2H]C([2H])(C[C@H]1CCCN1C)O[C@](C)(c1ccccc1)c1ccc(Cl)cc1 [Example 2, (R)-2-[2-[(R)-1-(4-Chlorophenyl)-1-phenylethoxy]ethyl-2,2-d2]-1-methylpyrrolidine fumarate] | 
 |  | CN1CCC[C@@H]1CCO[C@](C)(c1ccccc1)c1ccc(Cl)cc1 [Clemastine, 2-[2-[1-(4-chlorophenyl)-1-phenyl-ethoxy]ethyl]-1-methyl-pyrrolidine] | effect on driving performance [2]: significantly impair driving performance
+ (−25%-0%) |  | O=C(O)/C=C/C(=O)O.[2H]C([2H])([2H])N1CCC[C@@H]1CCO[C@](C)(c1ccccc1)c1ccc(Cl)cc1 [Example 4, (R)-2-[2-[(R)-1-(4-Chlorophenyl)-1-phenylethoxy]ethyl]-1-methyl-d3-pyrrolidine fumarate] | 
 | + (0%-50%) | O=C(O)/C=C/C(=O)O.[2H]C([2H])([2H])N1CCC[C@@H]1C([2H])([2H])C([2H])([2H])O[C@](C)(c1ccccc1)c1ccc(Cl)cc1 [Example 6, (R)-2-[2-[(R)-1-(4-Chlorophenyl)-1-phenylethoxy]ethyl-1,1,2,2-d4]-1-methyl-d3-pyrrolidine fumarate] | 
 | + (0%-50%) | O=C(O)/C=C/C(=O)O.[2H]C([2H])(O[C@](C)(c1ccccc1)c1ccc(Cl)cc1)C([2H])([2H])[C@H]1CCCN1C [Example 3, (R)-2-[2-[(R)-1-(4-Chlorophenyl)-1-phenylethoxy]ethyl-2,2-d4]-1-methyl-pyrrolidine fumarate] | 
